Key:
Format in all cases: in vivo
[1] = Pharmacokinetic evaluation in rat; conditions: male, Sprague-Dawley, plasma, single 5 mg/kg oral dose, Table 1, read-out: Pharmacokinetic area under the plasma concentration Curve (rat) AUC0-∞
Summary of the method: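 Male Sprague-Dawley rats (n=3/group) received a single 2 mg/kg IV (jugular slow bolus) or 5 mg/kg oral gavage dose in 10% DMSO/PEG-400; tail-vein plasma sampled to 24 h. Acetonitrile-precipitated plasma quantified by LC-MS/MS (LOQ 0.01 μg/mL); AUC0-∞ by linear trapezoidal rule plus Ct/β extrapolation.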

mantle cell lymphoma = assay: Oral efficacy of EXAMPLE 1 in combination therapy, antitumorigenesis on mantle cell lymphoma
HCT116 tumors = assay: HCT116 tumor xenograft in mice

CC1(C)CCC(c2ccc(Cl)cc2)=C(CN2CCN(c3ccc(C(=O)NS(=O)(=O)c4ccc(N[C@H](CCN5CCOCC5)CSc5ccccc5)c(S(=O)(=O)C(F)(F)F)c4)cc3)CC2)C1 [Example 1, N-(4-(4-((2-(4-chlorophenyl)-5,5-dimethyl-1-cyclohex-1-en-1-yl)methyl)piperazin-1-yl)benzoyl)-4-(((1R)-3-(morpholin-4-yl)-1-((phenylsulfanyl)methyl)propyl)amino)-3-((trifluoromethyl)sulfonyl)benzenesulfonamide]
AUC(0-inf) [1]: 5.01 µM·h
efficacy of cytotoxic agents during combination therapy (mantle cell lymphoma; EXAMPLE 1 orally with rituximab with CHOP, VELCADE): synergistically enhanced efficacy
complete tumor regression (mantle cell lymphoma; combination of EXAMPLE 1 and bortexomib): 10%
complete tumor regression (mantle cell lymphoma; combination of EXAMPLE 1 and rituximab with CHOP): 90%
time to detection of active BAX conformer in tumors (HCT116 tumors; ABT-263 75 mkd PO in tumors from mice pretreated 3 days with AZD1152, not in naive tumors): ≤ 4 h
persistence of tumor regression, combination regimen of AZD1152/ABT-263 (HCT116 tumors; HCT116 colon carcinoma model): at least 2 weeks
antitumor efficacy, combination regimen of AZD1152/ABT-263 (HCT116 tumors; HCT116 colon carcinoma model, tumors ~0.5 gram): rapid and more sustained tumor regression
